# Measured values published in the RepoRT retention time repository.
# Assay: Agilent ZORBAX 300 SB-C18, 150 × 1 mm, 3.5 µm; A: water + 0.01% heptafluorobutyric acid; B: acetonitrile + 0.01% heptafluorobutyric acid; gradient (min/%B) 0/0 100/90
# Details: stereoisomer not certain
row,LC retention time [min],SMILES
1,8.09,CCc1cnccn1
2,12.9,C1=Nc2ccccc2C(c2cccc3ccccc23)C1c1ccc2ccccc2n1 (stereo not drawn)
3,11.6,O=C(O)c1cc(-c2ccccc2)nc2ccccc12
4,10.4,CC(C)c1ccc(C=NNC(=O)C[n+]2ccccc2)cc1
5,16.8,CC(C)(C)c1ccc(-c2nnnn2-c2ccccc2)cc1
6,6.62,CCc1ncc(C)[nH]1
7,20.5,Cc1cc(C)cc(-c2nnc(-c3ccc(-c4ccccc4)cc3)o2)c1
8,12.8,CCOC(=O)C=CC(=O)NNC(=O)C(c1ccccc1)c1ccccc1
9,8.39,OC12CC(Cc3cccnc31)c1ccccc12 (stereo not drawn)
10,12.4,Cc1[nH]c2ccccc2c1CCNC(=O)CN1C(=O)c2ccccc2C1=O
11,7.12,CCN(CC)CC
12,9.59,NC(=S)NCCc1ccccc1
13,18.5,Cc1ccsc1C=CC(=O)c1ccc2ccccc2c1
14,9.32,CCOc1ccccc1CNC(N)=O
15,10.9,Cc1ccc(NC(=O)c2ccc(N)cc2)cc1
16,7.56,Nc1ccc2cc[nH]c2c1
17,6.96,CCNCCN(CC)CC
18,11.6,S=C1N=C2CCCCC2C2(CCCCC2)N1 (stereo not drawn)
19,3.04,CN1CC(C(=O)O)CC1=O (stereo not drawn)
20,7.26,NC(=O)Nc1ccccc1
21,11.3,C=CCC1(Nc2ccccc2)CCCCC1
22,11.3,Cc1ccc(-c2csc(-c3cccnc3)n2)cc1C
23,6.61,COC(=O)C1CCCNC1=O (stereo not drawn)
24,6.52,CCN1CCCCC1
25,6.89,Cc1ccncn1
26,7.51,CCN(C(C)C)C(C)C

row,LC retention time [min],SMILES
1,13.9,Oc1cccc(N2Cc3ccccc3C2)c1
2,13,c1ccc(N2CCN(c3ccccc3)C2c2cccnc2)cc1
3,7.47,CCNCCN(C)C
4,11.3,COC(=O)c1[nH]c2ccccc2c1C(=O)OC
5,8.35,Cc1nn(CC(=O)NC2CC(C)(C)NC(C)(C)C2)c(=O)c2ccccc12
6,16,S=C(NCc1ccc2[nH]c3c(c2c1)CCCC3)Nc1cccc2ccccc12
7,7.24,Nc1ccc(NC(=O)Nc2ccc(N)cc2)cc1
8,13.2,CC(=O)C1C(=O)C=C(c2ccco2)CC1c1ccco1 (stereo not drawn)
9,8.96,O=C(NN=Cc1ccccc1)c1ccncc1
10,12.2,O=c1oc2ccccc2c2nc(-c3ccncc3)ncc12
11,8.82,CN(C)Cc1c(N)cc2ccccc2c1-c1ccccc1
12,8.59,O=C(Nc1ccccn1)c1cccc(N2C(=O)CCC2=O)c1
13,7.43,COc1nc(N2CCCC2)[nH]c(=O)n1
14,10.9,COC(=O)c1c[nH]c2ccccc12
15,15.7,O=C1C(=Cc2ccoc2)CCCC1=Cc1ccoc1
16,12.3,CC(C)=C(NC(=O)c1ccccc1)C(=O)NCCc1c(C)[nH]c2ccccc12
17,7.16,CC(C)NCCNC(C)C
18,1.95,O=S(=O)(O)CCN1CCN(CCO)CC1
19,12.8,CCSc1ccc2c(c1)N(CCCN1CCN(C)CC1)c1ccccc1S2
20,1.6,NC(=O)c1cn(CC(=O)O)c(=O)[nH]c1=O
21,8.71,CN(C)CCCNCc1ccc2[nH]c3c(c2c1)CCCC3
22,10.6,Nc1cccc(C(=O)O)c1N
23,9.84,CN(C)c1ccc(C=NNC(N)=S)cc1
24,1.49,C[n+]1cccc(C(=O)O)c1
25,9.54,O=C(CN1CCN(C(=O)CNC2CCCCC2)CC1)NC1CCCCC1
26,7.19,CC1(N)CCC(C(C)(C)N)CC1 (stereo not drawn)

row,SMILES,LC retention time [min]
1,Cc1ccc(NC2=NCCCS2)cc1,8.91
